Reference: patent publication US10888550B2, “Pyrazole derivatives as MALT1 inhibitors” (Janssen Pharmaceutica NV, priority 2018, dated 2021)

What was measured:
[1] = molecular target: full-length MALT1 protein (Strep-MALT1(1-824)-His) (Homo sapiens (Human), UniProt Q9UDY8); test: MALT1 Biochemical Protease Assay; conditions: read-out: MALT1_Biochemical activity (Ac-LRSR-amc) IC50; 10 nM FL MALT1, 200 μM Ac-LRSR-AMC, 50 min pre-incubation, 4 h at RT
Source text: From this an ICso value (inhibitory concentration causing 50% inhibition) can be obtained.

[2] = tested on: IL6 secretion, OCI-LY3 cells; test: Human IL6 Mesoscale assay (OCI-LY3); assay type: cell-based; conditions: 24 h incubation
[3] = tested on: IL10 secretion, OCI-LY3 cells; test: Human IL10 Mesoscale assay (OCI-LY3); assay type: cell-based; conditions: 24 h incubation

Sequence of full-length MALT1 protein (Strep-MALT1(1-824)-His) (Q9UDY8 whole entry): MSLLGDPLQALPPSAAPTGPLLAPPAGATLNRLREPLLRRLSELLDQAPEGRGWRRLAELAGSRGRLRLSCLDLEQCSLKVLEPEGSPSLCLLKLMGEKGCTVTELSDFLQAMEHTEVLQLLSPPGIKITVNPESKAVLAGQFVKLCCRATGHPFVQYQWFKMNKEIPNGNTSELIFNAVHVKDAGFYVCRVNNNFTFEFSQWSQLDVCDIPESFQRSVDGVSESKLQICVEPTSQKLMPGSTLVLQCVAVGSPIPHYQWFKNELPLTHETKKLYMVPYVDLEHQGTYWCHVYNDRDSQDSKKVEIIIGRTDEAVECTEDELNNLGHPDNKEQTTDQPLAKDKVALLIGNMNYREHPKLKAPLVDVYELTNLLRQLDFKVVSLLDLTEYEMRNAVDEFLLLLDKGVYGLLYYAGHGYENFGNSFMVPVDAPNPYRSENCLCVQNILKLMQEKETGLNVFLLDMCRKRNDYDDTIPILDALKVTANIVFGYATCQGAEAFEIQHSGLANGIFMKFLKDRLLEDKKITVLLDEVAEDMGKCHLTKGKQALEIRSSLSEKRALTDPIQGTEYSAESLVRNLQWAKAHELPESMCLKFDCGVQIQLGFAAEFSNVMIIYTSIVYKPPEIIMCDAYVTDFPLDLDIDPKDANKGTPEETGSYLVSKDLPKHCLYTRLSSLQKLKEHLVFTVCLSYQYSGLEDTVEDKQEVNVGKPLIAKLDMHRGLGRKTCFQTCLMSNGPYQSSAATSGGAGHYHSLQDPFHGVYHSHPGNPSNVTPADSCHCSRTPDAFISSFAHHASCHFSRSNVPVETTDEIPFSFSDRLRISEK

Structure (SMILES)	IC50 [1]	IC50 [2]	IC50 [3]
CO[C@@H](C)c1ncc(NC(=O)c2cnn(-c3ccc(F)c4nccn34)c2C(F)(F)F)cc1Cl (single isomer, unassigned) [Cpd 17, (*S)—N-(5-chloro-6-(1-methoxyethyl)pyridin-3-yl)-1-(8-fluoroimidazo[1,2-a]pyridin-5-yl)-5-(trifluoromethyl)-1H-pyrazole-4-carboxamide]	2340 nM	–	–
O=C(Nc1cnc([C@H]2CCCO2)c(Cl)c1)c1cnn(-c2ccc(Cl)c3nccn23)c1C(F)(F)F (single isomer, unassigned) [Cpd 18, (*R)—N-(5-chloro-6-(tetrahydrofuran-2-yl)pyridin-3-yl)-1-(8-chloroimidazo[1,2-a]pyridin-5-yl)-5-(trifluoromethyl)-1H-pyrazole-4-carboxamide]	2190 nM	–	–
CO[C@H](C)c1ncc(NC(=O)c2cnn(-c3ccc(F)c4nccn34)c2C(F)(F)F)cc1Cl (single isomer, unassigned) [Cpd 19, (*R)—N-(5-chloro-6-(1-methoxyethyl)pyridin-3-yl)-1-(8-fluoroimidazo[1,2-a]pyridin-5-yl)-5-(trifluoromethyl)-1H-pyrazole-4-carboxamide]	2820 nM	–	–
O=C(Nc1cnc([C@@H]2CCCO2)c(Cl)c1)c1cnn(-c2ccc(Cl)c3nccn23)c1C(F)(F)F (single isomer, unassigned) [Cpd 20, (*S)—N-(5-chloro-6-(tetrahydrofuran-2-yl)pyridin-3-yl)-1-(8-chloroimidazo[1,2-a]pyridin-5-yl)-5-(trifluoromethyl)-1H-pyrazole-4-carboxamide]	355 nM	–	–
O=C(Nc1cnc([C@@H]2CCCO2)c(Cl)c1)c1cnn(-c2ccc(Cl)n3nccc23)c1C(F)(F)F (single isomer, unassigned) [Cpd 21, (*S)—N-(5-chloro-6-(tetrahydrofuran-2-yl)pyridin-3-yl)-1-(7-chloropyrazolo[1,5-a]pyridin-4-yl)-5-(trifluoromethyl)-1H-pyrazole-4-carboxamide]	87 nM	245 nM	200 nM
O=C(Nc1cnc([C@H]2CCCO2)c(Cl)c1)c1cnn(-c2ccc(Cl)n3nccc23)c1C(F)(F)F (single isomer, unassigned) [Cpd 22, (*R)—N-(5-chloro-6-(tetrahydrofuran-2-yl)pyridin-3-yl)-1-(7-chloropyrazolo[1,5-a]pyridin-4-yl)-5-(trifluoromethyl)-1H-pyrazole-4-carboxamide]	977 nM	–	–
N#Cc1ccc(-n2ncc(C(=O)Nc3cnc([C@@H]4CCCO4)c(Cl)c3)c2C(F)(F)F)c2ccnn12 (single isomer, unassigned) [Cpd 23, (*S)—N-(5-chloro-6-(tetrahydrofuran-2-yl)pyridin-3-yl)-1-(7-cyanopyrazolo[1,5-a]pyridin-4-yl)-5-(trifluoromethyl)-1H-pyrazole-4-carboxamide]	36 nM	200 nM	115 nM
N#Cc1ccc(-n2ncc(C(=O)Nc3cnc([C@H]4CCCO4)c(Cl)c3)c2C(F)(F)F)c2ccnn12 (single isomer, unassigned) [Cpd 24, (*R)—N-(5-chloro-6-(tetrahydrofuran-2-yl)pyridin-3-yl)-1-(7-cyanopyrazolo[1,5-a]pyridin-4-yl)-5-(trifluoromethyl)-1H-pyrazole-4-carboxamide]	251 nM	–	–
CO[C@@H](C)c1ncc(NC(=O)c2cnn(-c3ccc(C#N)n4nccc34)c2C(F)(F)F)cc1Cl (single isomer, unassigned) [Cpd 25, (*S)—N-(5-chloro-6-(1-methoxyethyl)pyridin-3-yl)-1-(7-cyanopyrazolo[1,5-a]pyridin-4-yl)-5-(trifluoromethyl)-1H-pyrazole-4-carboxamide]	457 nM	–	–
CO[C@H](C)c1ncc(NC(=O)c2cnn(-c3ccc(C#N)n4nccc34)c2C(F)(F)F)cc1Cl (single isomer, unassigned) [Cpd 26, (*R)—N-(5-chloro-6-(1-methoxyethyl)pyridin-3-yl)-1-(7-cyanopyrazolo[1,5-a]pyridin-4-yl)-5-(trifluoromethyl)-1H-pyrazole-4-carboxamide]	562 nM	–	–
CO[C@@H](C)c1ncc(NC(=O)c2cnn(-c3ccc(Cl)n4nccc34)c2C(F)(F)F)cc1Cl (single isomer, unassigned) [Cpd 27, (*S)—N-(5-chloro-6-(1-methoxyethyl)pyridin-3-yl)-1-(7-chloropyrazolo[1,5-a]pyridin-4-yl)-5-(trifluoromethyl)-1H-pyrazole-4-carboxamide]	1020 nM	–	–
CO[C@H](C)c1ncc(NC(=O)c2cnn(-c3ccc(Cl)n4nccc34)c2C(F)(F)F)cc1Cl (single isomer, unassigned) [Cpd 28, (*R)—N-(5-chloro-6-(1-methoxyethyl)pyridin-3-yl)-1-(7-chloropyrazolo[1,5-a]pyridin-4-yl)-5-(trifluoromethyl)-1H-pyrazole-4-carboxamide]	1320 nM	–	–
NC(=O)c1ccc(-n2ncc(C(=O)Nc3cnc(-n4nccn4)c(Cl)c3)c2C(F)(F)F)n2ccnc12 [Cpd 1, 5-(4-((5-chloro-6-(2H-1,2,3-triazol-2-yl)pyridin-3-yl)carbamoyl)-5-(trifluoromethyl)-1H-pyrazol-1-yl)imidazo[1,2-a]pyridine-8-carboxamide]	49 nM	91 nM	87 nM
N#Cc1ccc(-n2ncc(C(=O)Nc3cnc(-n4nccn4)c(Cl)c3)c2C(F)(F)F)n2ccnc12 [Cpd 2, N-(5-chloro-6-(2H-1,2,3-triazol-2-yl)pyridin-3-yl)-1-(8-cyanoimidazo[1,2-a]pyridin-5-yl)-5-(trifluoromethyl)-1H-pyrazole-4-carboxamide]	38 nM	83 nM	47 nM
O=C(Nc1cnc(-n2cccn2)c(Cl)c1)c1cnn(-c2ccc(F)c3nccn23)c1C(F)(F)F [Cpd 3, N-(5-chloro-6-(1H-pyrazol-1-yl)pyridin-3-yl)-1-(8-fluoroimidazo[1,2-a]pyridin-5-yl)-5-(trifluoromethyl)-1H-pyrazole-4-carboxamide]	251 nM	151 nM	114 nM
O=C(Nc1cnc(-n2nccn2)c(C(F)(F)F)c1)c1cnn(-c2ccc(F)c3nccn23)c1C(F)(F)F [Cpd 4, N-(6-(2H-1,2,3-triazol-2-yl)-5-(trifluoromethyl)pyridin-3-yl)-1-(8-fluoroimidazo[1,2-a]pyridin-5-yl)-5-(trifluoromethyl)-1H-pyrazole-4-carboxamide]	50 nM	47 nM	31 nM
CS(=O)(=O)c1ncc(NC(=O)c2cnn(-c3ccc(F)c4nccn34)c2C(F)(F)F)cc1C(F)(F)F [Cpd 5, 1-(8-fluoroimidazo[1,2-a]pyridin-5-yl)-N-(6-(methylsulfonyl)-5-(trifluoromethyl)pyridin-3-yl)-5-(trifluoromethyl)-1H-pyrazole-4-carboxamide]	372 nM	281 nM	371 nM
O=C(Nc1cnc(-c2ncco2)c(Cl)c1)c1cnn(-c2ccc(F)c3nccn23)c1C(F)(F)F [Cpd 6, N-(5-chloro-6-(oxazol-2-yl)pyridin-3-yl)-1-(8-fluoroimidazo[1,2-a]pyridin-5-yl)-5-(trifluoromethyl)-1H-pyrazole-4-carboxamide]	30 nM	257 nM	105 nM
Cc1ccc(-n2ncc(C(=O)Nc3cnc(-n4nccn4)c(Cl)c3)c2C(F)(F)F)n2ccnc12 [Cpd 7, N-(5-chloro-6-(2H-1,2,3-triazol-2-yl)pyridin-3-yl)-1-(8-methylimidazo[1,2-a]pyridin-5-yl)-5-(trifluoromethyl)-1H-pyrazole-4-carboxamide]	120 nM	219 nM	65 nM
CS(=O)(=O)c1c(C(=O)Nc2cnc(-n3nccn3)c(Cl)c2)cnn1-c1ccc(F)c2nccn12 [Cpd 8, N-(5-chloro-6-(2H-1,2,3-triazol-2-yl)pyridin-3-yl)-1-(8-fluoroimidazo[1,2-a]pyridin-5-yl)-5-(methylsulfonyl)-1H-pyrazole-4-carboxamide]	457 nM	–	–
Cc1cc(NC(=O)c2cnn(-c3ccc(F)c4nccn34)c2C(F)(F)F)cnc1N=S(C)(C)=O [Cpd 29, N-(6-((dimethyl(oxo)-λ^6-sulfanylidene)amino)-5-methylpyridin-3-yl)-1-(8-fluoroimidazo[1,2-a]pyridin-5-yl)-5-(trifluoromethyl)-1H-pyrazole-4-carboxamide]	6000 nM	–	–
CS(C)(=O)=Nc1ncc(NC(=O)c2cnn(-c3ccc(F)c4nccn34)c2C(F)(F)F)cc1C(F)(F)F [Cpd 30, N-(6-((dimethyl(oxo)-λ^6-sulfanylidene)amino)-5-(trifluoromethyl)pyridin-3-yl)-1-(8-fluoroimidazo[1,2-a]pyridin-5-yl)-5-(trifluoromethyl)-1H-pyrazole-4-carboxamide]	830 nM	–	–
CS(=N)(=O)c1ncc(NC(=O)c2cnn(-c3ccc(F)c4nccn34)c2C(F)(F)F)cc1C(F)(F)F (stereo not shown) [Cpd 31, 1-(8-fluoroimidazo[1,2-a]pyridin-5-yl)-N-(6-(S-methylsulfonimidoyl)-5-(trifluoromethyl)pyridin-3-yl)-5-(trifluoromethyl)-1H-pyrazole-4-carboxamide]	3160 nM	–	–
CS(C)(=O)=Nc1ncc(NC(=O)c2cnn(-c3ccc(F)c4nccn34)c2C(F)(F)F)cc1F [Cpd 32, N-(6-((dimethyl(oxo)-λ^6-sulfanylidene)amino)-5-fluoropyridin-3-yl)-1-(8-fluoroimidazo[1,2-a]pyridin-5-yl)-5-(trifluoromethyl)-1H-pyrazole-4-carboxamide]	8130 nM	–	–
CS(C)(=O)=Nc1ncc(NC(=O)c2cnn(-c3ccc(F)c4nccn34)c2C(F)(F)F)cc1Cl [Cpd 33, N-(5-chloro-6-((dimethyl(oxo)-λ^6-sulfanylidene)amino)pyridin-3-yl)-1-(8-fluoroimidazo[1,2-a]pyridin-5-yl)-5-(trifluoromethyl)-1H-pyrazole-4-carboxamide]	980 nM	–	–
